Test results taken from patent US7947468B2, “Methods” (Medical Research Council, priority 2007, dated 2011).
Values belong to the compound of their own block, whether it stands above or below them.

How the values were obtained:
Human Platelets = details: non-specific serine/threonine kinase inhibitor; cited from earlier work
LRRK2 = assay: Concentration dependent phosphorylation of Nictide / LongLRRKtide by LRRK2; assay type: biochemical
Description: A longer LRRKtide, with the +7 to +12 residues of the Thr 558 site was compared to the LRRKtide by phosphorylation with LRRK2. […] The LRRK2 affinity for the longLRRKtide is ten fold more than that that of LRRKtide.
A derived consensus sequences is shown below the positions. FIG. 24B depicts an alignment of the peptide substrate sequences previously used for LRRK2, LRRKtide and LongLRRKtide, along with a new peptide in which the preferred LRRK2 residues are substituted, henceforth referred to as Nictide. […] Calculated Km values are 6 μM for Nictide.

Compound: CN[C@@H]1C[C@H]2O[C@@](C)([C@@H]1OC)n1c3ccccc3c3c4c(c5c6ccccc6n2c5c31)C(=O)NC4 [staurosporine]
effect on platelet behaviour (Human Platelets): form extremely long filopodia and not to spread on glass

Compound: RLGRDKYKTLRQIRQGNTKQR (listed as Homo sapiens) [longLRRKtide]
LRRK2 affinity relative to LRRKtide (LRRK2; compared to LRRKtide): ten fold

Km (LRRK2; 5 min reaction times, read-out: Calculated Km): 6 µM
Compound: RLGWWRFYTLRRARQGNTKQR [Nictide]
